Values quoted from earlier work, collected in patent US20240173315A1 (OWP Pharmaceuticals, Inc., priority 2022, published 2024).
Where a name gives a salt, the structure may show the parent alone. Read-outs that look alike come from different tables or passages of the source.

Experiments:
[1] = humans, oral
CYP3A4 = target: T1, CYP3A4 (Homo sapiens, UniProt P08684); conditions: in vitro
T1 construct: In vitro studies in human liver microsomes; from tissue; host or cells: human liver microsomes

[2] = oral dose

T1 sequence (P08684 whole entry): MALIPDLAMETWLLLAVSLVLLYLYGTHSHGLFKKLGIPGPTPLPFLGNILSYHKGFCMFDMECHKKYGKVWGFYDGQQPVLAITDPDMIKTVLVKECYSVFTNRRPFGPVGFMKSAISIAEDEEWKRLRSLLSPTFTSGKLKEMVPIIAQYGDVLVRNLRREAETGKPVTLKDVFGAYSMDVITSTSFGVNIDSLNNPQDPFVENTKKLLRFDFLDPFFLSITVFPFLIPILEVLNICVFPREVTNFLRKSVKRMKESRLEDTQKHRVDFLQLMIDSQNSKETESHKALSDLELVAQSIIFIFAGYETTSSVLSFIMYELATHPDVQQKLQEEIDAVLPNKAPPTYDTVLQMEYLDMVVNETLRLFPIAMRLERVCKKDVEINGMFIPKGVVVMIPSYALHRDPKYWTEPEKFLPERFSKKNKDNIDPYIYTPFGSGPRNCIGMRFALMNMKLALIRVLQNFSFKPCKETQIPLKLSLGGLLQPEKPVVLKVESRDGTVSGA

Row | time after dosing at which peak plasma levels occur ([1]; taken on an empty stomach) | effect of food on amount of drug absorbed ([1]; taken shortly after ingestion of food) | time after dosing at which peak plasma levels occur ([1]; taken with food) | excreted unchanged in the urine [2] | SMILES | metabolism in human liver microsomes (CYP3A4)
1 | approximately one | increase | ~2 h |  | O=c1n(CCCN2CCN(c3cccc(Cl)c3)CC2)nc2ccccn12 [trazodone hydrochloride] | 
2 |  |  |  | less than 1 % of an oral dose | O=c1n(CCCN2CCN(c3cccc(Cl)c3)CC2)nc2ccccn12 [trazodone, 2-{3-[4-(3-chlorophenyl)piperazin-1-yl]propyl}[1,2,4]triazolo[4,3-a]pyridin-3(2H)-one] | metabolized, via oxidative cleavage, to an active metabolite, m-chlorophenvlpipera.zine (mCPP) by CYP3A4
